Earlier results as cited in patent US8815262B2, “Pharmaceutical composition and preparation for oral administration” (FUJIFILM Corporation, priority 2010, dated 2014).

Settings: oral administration

bioavailability: ≤ 4%
SMILES: CC(=O)O[C@H]1C(=O)[C@@]2(C)[C@H]([C@H](OC(=O)c3ccccc3)[C@]3(O)C[C@H](OC(=O)[C@H](O)[C@@H](NC(=O)c4ccccc4)c4ccccc4)C(C)=C1C3(C)C)[C@]1(OC(C)=O)CO[C@@H]1C[C@@H]2O [paclitaxel]
